The values that follow come from ChEMBL document CHEMBL1134567, “Prediction of the aroma quality and the threshold values of some pyrazines using artificial neural networks” (J Med Chem, 2001).

The first test can be described thus: Evaluated for its olfactory detection threshold value and indicates quantitative measure of odor impression. It is filed as functional.
In the case of `CCCCCCCCCCc1nccnc1OC`, the Log 1/C was determined as 3.8.

`CCCCCCCCc1nccnc1OCC` registered a Log 1/C of 5.07.

As for `CCCCCCCCc1nccnc1SC`, the Log 1/C worked out at 5.53. On the same count and under the same terms, for `CCCCCCCCc1nccnc1OC` the value was 6.57; for `CCCCCCCCc1nccnc1SCC`, 5.1.

Compound `CCCCCCCCCCc1nccnc1OCC` returned a Log 1/C of 3.64. The same measure, in the same setting: for `CCc1cnc(C)cn1` the value was 2.45.

A further test in a line: Evaluated for its olfactory detection threshold value and indicates quantitative measure of odour impression. It is filed as functional.
`CCCCCCCc1nccnc1OC` displayed a Log 1/C of 6.9. On the same count and under the same terms, for `CCC(C)CCc1cnc(OC)c(C)n1` (stereo not drawn) the value was 5.24; for `COc1nc(C(C)C)c(OC)nc1C`, 3.45.

In turn, `CC(C)Cc1cnccn1` returned a Log 1/C of 2.53. The same measure, in the same setting: for `CCCC(C)Cc1cnc(SC)c(C)n1` (stereo not drawn) the value was 4.27; for `Cc1nccnc1C(C)C`, 3.93. Take `CCCc1nccnc1OC`: the Log 1/C was found to be 6.1. With `COc1nc(C)c(OC)nc1C`, the Log 1/C amounted to 2.97. Same read-out and setting: for `COc1nccnc1CC(C)C` the value was 7.47; for `C/C=C\CCc1nccnc1OC`, 5.52. Still for that read-out and setting: for `COc1nc(C)cnc1C(C)C` the value was 6.57.

Consider `COc1nccnc1CCC(C)C`, for which the Log 1/C came out at 7.46.

Consider `CCCc1nccnc1C`, for which the Log 1/C came to 3.36. Same read-out and setting: for `CSc1nccnc1C(C)C` the value was 6.55; for `CCCCCc1nccnc1SCC`, 5.32; for `CSc1ncc(CC(C)C)nc1C`, 4.12. On the same count and under the same terms, for `CC(C)c1cnc(Oc2ccccc2)cn1` the value was 2.79; for `CCOc1ncc(CCC(C)CC)nc1C` (stereo not drawn), 4.87; for `CCCCc1nccnc1SCC`, 4.69.

On to `CCC(C)CCc1cnc(Oc2ccccc2)c(C)n1` (stereo not drawn), for which the Log 1/C amounted to 3.29. Still for that read-out and setting: for `COc1nc(C)c(C)nc1CC(C)C` the value was 2.79. For the compound `C/C=C/CCc1nccnc1OC`, the Log 1/C was 6.1. Same read-out and setting: for `CCC(C)c1nccnc1OC` (stereo not drawn) the value was 6.62; for `CC(C)Cc1cncc(N(C)C)n1`, 1.55; for `CCOc1ncc(C(C)CC)nc1C` (stereo not drawn), 4.21. Still for that read-out and setting: for `CCCCCc1nccnc1OCC` the value was 6.38. The same measure, in the same setting: for `COc1nc(C(C)C)c(OC)nc1C(C)C` the value was 2.52. For `Cc1ncc(C(C)C)nc1C`, the Log 1/C turned out to be 3.88. On the same count and under the same terms, for `CCCC(C)Cc1nccnc1OC` (stereo not drawn) the value was 7.38.

Compound `CCCc1nccnc1SC` registered a Log 1/C of 5.23. Consider `CCOc1ncc(CC(C)CC)nc1C` (stereo not drawn), for which the Log 1/C was determined as 4.54. The same measure, in the same setting: for `CCCCc1nccnc1OC` the value was 6.52; for `Cc1nccnc1N(C)C`, 2.88; for `CCCCCc1nccnc1SC`, 6.21. Same read-out and setting: for `COc1nccnc1C(C)C` the value was 6.8.

Compound `CCCCCc1cnc(C)c(C)n1` registered a Log 1/C of 3.3. Still for that read-out and setting: for `Cc1nccnc1CC(C)C` the value was 3.06.

In turn, `CSc1nccnc1CC(C)C` had a Log 1/C of 5.74. Same read-out and setting: for `COc1nc(C)cnc1CC(C)C` the value was 5.84; for `CCSc1cnc(CCC(C)CC)cn1` (stereo not drawn), 3.63; for `CCCCc1cnccn1`, 2.53. Compound `CCSc1ncc(CC(C)CC)nc1C` (stereo not drawn) yielded a Log 1/C of 4.95. The same measure, in the same setting: for `COc1nccnc1CCCC(C)C` the value was 7.51; for `Cc1nc(CC(C)C)cnc1Oc1ccccc1`, 2.88.

On to `COc1nc(OC)c(C(C)C)nc1C`, for which the Log 1/C came to 2.89.

In the case of `COc1ncc(C)nc1CC(C)C`, the Log 1/C was determined as 4.84. On the same count and under the same terms, for `CCCCCc1cnccn1` the value was 4.48; for `CCc1nccnc1CC`, 5.13. On the same count and under the same terms, for `CCCCCCc1nccnc1OC` the value was 6.44; for `CCCCCc1nccnc1OC`, 6.95; for `CCC(C)Cc1cnc(OC)c(C)n1` (stereo not drawn), 7.29. Still for that read-out and setting: for `CCC(C)Cc1nccnc1OC` (stereo not drawn) the value was 7.18. Turning to `C=CCCCc1nccnc1OC`, the Log 1/C was found to be 6.77. The same measure, in the same setting: for `COc1ncc(CC(C)C)nc1C` the value was 6; for `CCOc1ncc(CC(C)C)nc1C`, 4.08. `COc1ncc(C)nc1C(C)C` came in with a Log 1/C of 6.52.

Another test in a line: Olfactory detection threshold value and quantitative measure of odour impression; No threshold value. The class given is functional.
For the compound `CCCC(C)c1nccnc1OC` (stereo not drawn), the “Log 1/C” value was “No threshold value”. On to `CSc1cnccn1`, for which the “Log 1/C” value was “No threshold value”. Same read-out and setting: for `COc1cncc(C)n1` the value was “No threshold value”; for `COc1cnccn1`, “No threshold value”. Still for that read-out and setting: for `COc1nccnc1CCCCCCC(C)C` the value was “No threshold value”; for `Cc1cnc(C)cn1`, “No threshold value”; for `CSc1cncc(C)n1`, “No threshold value”.

With `CCCCOc1cnccn1`, the “Log 1/C” value is “No threshold value”. Still for that read-out and setting: for `CCc1nccnc1OC` the value was “No threshold value”; for `CCSc1cnccn1`, “No threshold value”; for `CNc1nccnc1C`, “No threshold value”. Turning to `CCOc1cnccn1`, the “Log 1/C” value is “No threshold value”. For the compound `Cc1cnc(C)c(C)n1`, the “Log 1/C” value was “No threshold value”. On the same count and under the same terms, for `CCCCCCCCc1nccnc1Sc1ccccc1` the value was “No threshold value”; for `CCCCCCC(C)Cc1nccnc1OC` (stereo not drawn), “No threshold value”. On the same count and under the same terms, for `COc1nccnc1C` the value was “No threshold value”; for `CCc1cnccn1`, “No threshold value”. The same measure, in the same setting: for `COc1nc(CC(C)C)cnc1CC(C)C` the value was “No threshold value”; for `CSc1nccnc1C`, “No threshold value”; for `Cc1nccnc1C`, “No threshold value”. For `CCOc1nccnc1CC(C)C`, the “Log 1/C” value is “No threshold value”.

A further test can be described thus: Evaluated for its olfactory detection threshold value and indicates quantitative measure of odour impression; No threshold value. The class given is functional.
Consider `CCSc1nccnc1C`, for which the “Log 1/C” value was “No threshold value”. On the same count and under the same terms, for `CCc1cnc(C)c(C)n1` the value was “No threshold value”. Turning to `COc1nc(C)cnc1C`, the “Log 1/C” value is “No threshold value”. On the same count and under the same terms, for `CCc1ncc(C)nc1C` the value was “No threshold value”. Same read-out and setting: for `COc1nc(C)cnc1C(C)=O` the value was “No threshold value”; for `Cc1cnc(C)c(CCC(C)C)n1`, “No threshold value”; for `CCc1nc(C)cnc1C`, “No threshold value”. The same measure, in the same setting: for `COc1nc(C)cnc1C(C)(C)O` the value was “No threshold value”; for `COc1ncc(C)nc1C(C)(C)O`, “No threshold value”. In the case of `COc1nc(C(C)=O)c(OC)nc1C`, the “Log 1/C” value was “No threshold value”. Still for that read-out and setting: for `Cc1ncc(CC(C)C)nc1C` the value was “No threshold value”; for `Cc1nc(C)c(C)nc1C`, “No threshold value”.

Turning to `CCSc1nccnc1CC`, the “Log 1/C” value was “No threshold value”. Regarding `CCOc1nccnc1C`, the “Log 1/C” value is “No threshold value”.
